Experimental data taken from article PMC2873402, “Discovery of High-Affinity Protein Binding Ligands – Backwards” (PLoS ONE, 2010).
“Also recorded” adds a separate entry of the source. Bridge positions count the residues as written; N and C are the ends. Ends that are not written are not given here. I, II: the chains in the order shown. * marks the point of attachment. StBu = CC(C)(C)S*

Columns and labels:
AKT1 [1] = molecular target: T1, AKT1 (Homo sapiens, UniProt P31749); test: Protein array (ProtoArray), binding to AKT1; parameters: purchased Life Technologies; details: 200 nM synbody, fluorescently labeled streptavidin
T1 sequence (P31749 whole entry): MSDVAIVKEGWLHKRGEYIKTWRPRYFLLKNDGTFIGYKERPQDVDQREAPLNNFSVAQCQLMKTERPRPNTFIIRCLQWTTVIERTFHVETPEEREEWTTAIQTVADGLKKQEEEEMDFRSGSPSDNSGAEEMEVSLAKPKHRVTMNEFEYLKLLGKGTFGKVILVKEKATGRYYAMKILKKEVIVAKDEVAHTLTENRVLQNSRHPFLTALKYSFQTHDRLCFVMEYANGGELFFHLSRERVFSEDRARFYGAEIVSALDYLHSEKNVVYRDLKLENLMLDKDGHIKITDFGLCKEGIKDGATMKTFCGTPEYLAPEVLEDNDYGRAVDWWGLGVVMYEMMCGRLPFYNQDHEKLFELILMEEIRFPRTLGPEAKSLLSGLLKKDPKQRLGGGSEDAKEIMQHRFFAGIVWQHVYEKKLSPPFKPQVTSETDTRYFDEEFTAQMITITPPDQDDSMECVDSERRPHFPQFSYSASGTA
Source text: (§1) To test this approach, a candidate synbody was constructed using two peptides, […] and […], referred to as peptides 1 and 2, respectively. The sequences of the first 17 aa of these peptides were generated using a random number generator and three constant positions on the C-terminus that served as a spacer between the linker scaffold and the active portion of each peptide. A divergent synthetic method was used in which peptide 1 was synthesized from C to N terminus from the α-amine of lysine and peptide 2 was synthesized from the ε-amine of lysine (Figure 2A, Materials and Methods S1, Figure S1). The synbody was tagged on the C-terminus with biotin and screened against a Life Technologies ProtoArray™. ProtoArrays are nitrocellulose coated slides onto which 8,303 recombinant human proteins have been spotted. After a 2-hour incubation, the array was washed and bound synbody was detected using fluorescently labeled streptavidin. […]
(§2) Synbodies were screened on an Invitrogen ProtoArray™ (Life Technologies, Carlsbad, CA, USA) detected with Alexa-555 labeled streptavidin (Life Technologies), and scanned using a Perkin Elmer ProScan Array HTP. The spots were analyzed using GenePix Pro (Molecular Devices, Sunnyvale, CA, USA) and data were processed using Genespring GX (Agilent Technologies, Santa Clara, CA, USA). […]

[2] = test system: 8,303 recombinant human proteins; test: Protein array (ProtoArray) screen of synbodies; format: binding; details: 200 nM biotin synbody, Alexa-555 streptavidin detection, background-subtracted fluorescence
Source text: as §1, §2

AKT3 [3] = test: Protein array (ProtoArray), binding to AKT3; parameters: species or system human
Procedure: Synbodies were screened on an Invitrogen ProtoArray™ (Life Technologies, Carlsbad, CA, USA) detected with Alexa-555 labeled streptavidin (Life Technologies), and scanned using a Perkin Elmer ProScan Array HTP. The spots were analyzed using GenePix Pro (Molecular Devices, Sunnyvale, CA, USA) and data were processed using Genespring GX (Agilent Technologies, Santa Clara, CA, USA). Synbodies were labeled with biotin using either Maleimide-PEG2-Biotin (Thermo Pierce, Rockford, IL, USA) to label the C-terminal cysteine or biotin was incorporated during synbody synthesis by replacing the C-terminal cysteine with Lys-biotin (Novabiochem, San Diego, CA, USA). Synbodies were screened on the array using the recommended protocol with the following modifications: the arrays were blocked with 5 mL blocking buffer (50mM HEPES pH 7.5, 200 mM NaCl, 0.08% Triton X-100, 25% Glycerol, 20mM reduced Glutathione, 1.0mM DTT, 1% BSA) for 90 min. A 200 nM synbody solution was incubated in probing buffer (1× PBS, 1% BSA, 0.1% Tween) for 90 minutes. Slides were dried by centrifugation at 200g for 1 minute and scanned at 100% laser power and 70% photomultiplier voltage. The gal file was obtained for each array by submitting the barcode of the array to www.invitrogen.com/protoarray.
Heat maps were constructed using median-normalized data from each ProtoArray. […]

AKT3 [4] = test: IP of AKT isoforms spiked into A549 lysate: AKT3; format: binding; details: 250 ng of each isoform in 500 µg A549 lysate, Western Blot
Procedure: This apparent specificity was investigated further by performing an IP using 250 ng of each isoform of AKT spiked into 500 µg of A-549 cell lysate.
(§3) For all IP experiments, either a 1 µM or 250 nM solution of biotin-conjugated synbody was captured on 20 µL of streptavidin coated paramagnetic M-280 Dynabeads (Life Technologies) according to the manufacturers protocol. Synbody coated beads were washed five times with 1 mL of 100 mM phosphate buffered saline containing 0.05% Tween-20 (PBST) and incubated overnight at 4°C with shaking in the desired amount of target protein in A549 cell lysate. For Kd determination experiments, serial dilutions of AKT1 or ABL1 were prepared in binding buffer. After binding, beads were washed five times with 1 mL of PBST and heated at 70°C in 20 µL of 1× LDS loading buffer (Invitrogen) for 10 minutes. The samples were analyzed by SDS-PAGE gel with Western Blot detection using the appropriate antibody and imaged on a GE Healthcare Typhoon Trio.

AKT1 [5] = molecular target: T1, AKT1; test: IP of AKT1 from pre-cleared A549 lysate with silver stain detection; format: binding; parameters: purchased Life Technologies
Procedure: However, to more rigorously test the specificity of the synbody, we reduced the molar ratio of synbody to protein to approximately 2 to 1 and performed an IP to examine other proteins that were non-specifically bound by the synbody. In this experiment, 400 ng of AKT1 (66.4 nM) was spiked into 100 and 500 µg of A549 cell lysate pre-cleared on streptavidin beads (Figure S3) and precipitated using streptavidin beads coated with 15 pmols of synbody. Synbody coated beads and uncoated streptavidin beads were incubated overnight, washed, and bound proteins were eluted. Elution samples were split with half of the sample analyzed by silver stain and half analyzed by Western Blot (Figure 3E).
as §3
Due to the high-level of A549 lysate protein binding to the magnetic beads used previously, we pre-cleared the cell lysate prior to IP. This was accomplished by overnight incubation of 1 mL of lysate (∼5 mg/mL) with 1 mL of streptavidin beads. The supernatant was removed and this lysate was used in subsequent experiments. […] One half of each elution sample was analyzed by SDS-PAGE followed by staining using a SNAP Silver Stain kit (Thermo Pierce) while the other half of the sample was analyzed by SDS-PAGE with Western Blot detection as before.

AKT1 [6] = molecular target: T1, AKT1; test: IP of AKT1 spiked into A549 cell lysate, Western Blot; format: binding; parameters: purchased Life Technologies; details: 200 ng AKT1 (33.2 nM)
Procedure: (§4) As a preliminary test of specificity, 200 ng of AKT1 (33.2 nM) was spiked into increasing amounts of cell lysate prepared from un-stimulated A549 lung epithelial cells and streptavidin beads coated with 25 pmols of synbody (7.6∶1 synbody-to-AKT1 ratio) were used to pull down AKT1 using the same IP procedure and Western Blot protocol as before.
as §3

AKT1 [7] = molecular target: T1, AKT1; test: IP of endogenous AKT1 from A549 lysate; format: binding; parameters: N-terminal vector leader of pEXP5-NT (6xHis + TEV site by own knowledge of the vector); made in house; host or cells: Expressway Mini Cell-Free Expression System (in vitro translation); details: un-stimulated A549 lysate, 25 pmols synbody
Procedure: as §4, §3

binding to AKT3 on protein array (AKT3 [3]): little binding | specificity (AKT1 [5]; IP silver stain, A549 lysate): useful, though not perfect specificity | excess cell extract in the presence of which AKT1 is precipitated (AKT1 [6]; 25 pmols synbody (7.6:1), A549 lysate): 2,500 fold excess
Substance: I: AHKVVPQRQIRHAYNRYGSGKC(StBu)-NH2 / II: FRGWAHIFFGPHVIYRGGSG (amide I:21-II:C) [synbody]
binding to AKT1 on protein array (top 10 proteins) (AKT1 [1]): twice in the top 10 proteins bound by the synbody | proteins bound on protein array [2]: bound few proteins on the array; also recorded: bound several different proteins including PCCA, CASZ1, GRP58, NOB1, and AKT1 | IP of AKT3 (isoform selectivity) (AKT3 [4]): relatively little | proteins precipitated (silver stain) (AKT1 [5]; 400 ng AKT1 (66.4 nM) in pre-cleared A549 lysate, 500 µg (5mg/ml), 15 pmols synbody (approx. 2:1)): AKT1 was precipitated along with two other prominent proteins | dominant band precipitated (AKT1 [5]; 400 ng AKT1 in 100 or 500 µg pre-cleared A549 lysate, Western Blot confirmation): the dominant band precipitated by the synbody was AKT1 | precipitation of AKT1 from A549 lysate (AKT1 [6]; 25 pmols synbody (7.6:1 synbody-to-AKT1), increasing A549 lysate): successfully pulled AKT1 out of the cell lysate in the presence of an increasing concentration of A549 lysate with little reduction in AKT1 signal intensity | precipitation of endogenous AKT1 (AKT1 [7]): precipitates the very low level endogenous AKT1 from the un-stimulated cell lysate
